Data: ChEMBL document CHEMBL1201862, “PubChem BioAssay data set” (2004)
Activity calls are given as the source filed them.

How the values were obtained:
Nonstructural protein 1 = Nonstructural protein 1 (Influenza A virus, UniProt Q194T2); type: functional, Influenza A virus (A/California/07/2009(H1N1))
[1] = HeLa cell cytotoxicity, dose response, cytotoxicity control, CellTiter-Glo luminescence, dry powder, set 2 (AID 720593); type: functional, cell-based
[2] = HepG2 cell cytotoxicity, dose response, cytotoxicity control, ATP luminescence, cherry-pick, set 6 (AID 1053125); type: functional, cell-based
cells [3] = settings: HEK293
cells [4] = assay: cells
cells [5] = settings: A549
[6] = HEK293 Cytotoxicity Assay Measured in Cell-Based System Using Plate Reader - 7071-01_Inhibitor_Dose_CherryPick_Activity_Set2.; type: functional
HEK293 [7] = assay: HEK293T cell cytotoxicity, dose response, cytotoxicity control, ATP luminescence, cherry-pick samples (AID 687005); type: functional, cell-based; settings: Homo sapiens;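 also: cells exposed to compound for 48 hours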
[8] = Cryptococcus neoformans growth inhibition, dose response, Alamar Blue, cherry-picks (AID 686998); type: functional, organism-based
INS1 = assay: beta cell apoptosis inhibitors, cytokine rescue, dose response, luminescence, retest (AID 449756); type: functional, cell-based; settings: Rattus norvegicus;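 also: cell death triggered by IL-1 beta plus TNF-alpha plus IFN-gamma mixture; protective hits raise ATP signal compared with cytokine alone wells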
[9] = Luminescence Cell-Based Dose Response HTS to Identify Activators of Luciferase Translation or Activity in H4 […] Cells. [Related pubchem assays: 1829 (Project Summary), 1814 (Primary HTS)]; type: functional
[10] = HepG2 cell cytotoxicity, dose response, cytotoxicity control, ATP luminescence, cherry-pick, activator set 2 (AID 1053143); type: functional, cell-based
[11] = Luminescence Cell-Based Dose Confirmation HTS to Identify Activators of 5'UTR Stem-Loop Driven Alpha-Synuclein mRNA Translation in H4 Neuroglioblastoma Cells. [Related pubchem assays: 1829 (Project Summary), 1814 (Primary HTS)]; type: functional
H4 = assay: Luminescence Cell-Based Dose Response HTS to Identify Activators of 5'UTR Stem-Loop Driven Prion Protein mRNA Translation in H4 Neuroglioblastoma Cells. [Related pubchem assays: 1829 (Project Summary), 1814 (Primary HTS)]; type: functional; settings: Homo sapiens
[12] = molecular target: Disintegrin and metalloproteinase domain-containing protein 17 (Homo sapiens, UniProt P78536); assay: exosite inhibitors of ADAM17, dose response, biochemical (AID 743260)
[13] = molecular target: Luciferin 4-monooxygenase (Photinus pyralis, UniProt P08659); assay: firefly luciferase enzyme inhibitors, dose response, biochemical, luminescence (AID 1891)
[14] = ADAM10 protease inhibitors, dose response, selectivity assay for ADAM17 exosite inhibitor project, biochemical, FRET peptide substrate, recombinant human ADAM10 (AID 743259);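 also: ADAM10 enzyme cleaving a FRET peptide substrate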
HEK293 [15] = assay: NOD1 signaling inhibitors, primary screen, cell-based, luminescence, uHTS (AID 1578); type: functional; settings: Homo sapiens
HEK293 [16] = assay: cells; type: functional, cell-based; settings: Homo sapiens
[17] = Luminescence Cell-Based Dose Confirmation HTS to Identify Inhibitors of Platelet Dense Granule Release. [Related pubchem assays: 1663 (Primary HTS), 1678 (Summary of Project)]; type: functional
[18] = molecular target: Nucleotide-binding oligomerization domain-containing protein 2 (Homo sapiens, UniProt Q9HC29); assay: NOD2 signaling inhibitors, cell-based, luminescence, uHTS, HEK293 (AID 1566); type: functional
HEK293 [19] = assay: cells; type: functional, cell-based; settings: Homo sapiens; remark: listed apart in the source
BJ [20] = assay: cytotoxicity toward BJ-TERT fibroblasts, dose response, cell-based, RAS-independent, luminescence (AID 1933); type: functional; settings: Homo sapiens
BJ [21] = assay: cells; type: functional, cell-based; settings: Homo sapiens
HEK293 [22] = assay: cells; type: functional, cell-based; settings: Homo sapiens; remark: listed apart in the source
[23] = cytotoxicity toward DRD oncogenic fibroblasts, dose response, cell-based, non-viral oncogenic, luminescence (AID 1934); type: functional; settings: Homo sapiens
BJ [24] = assay: cytotoxicity toward BJ-TERT-LT-ST fibroblasts, dose response, cell-based, RAS-independent, luminescence (AID 1935); type: functional; settings: Homo sapiens;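 also: BJ fibroblasts immortalized with TERT plus LT and ST oncogenes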
Paired box protein Pax-8 = Paired box protein Pax-8 (Homo sapiens, UniProt Q06710); assay: inhibitors of PAX8-driven TPO luciferase reporter, dose response, RMG-I cells, cherry-pick (AID 687027); type: functional, cell-based;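 also: luciferase reporter driven by Pax8 target thyroperoxidase promoter measured by SteadyGlo luminescence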
[25] = non-specific cell cytotoxicity, dose response, cytotoxicity control for PAX8 inhibitor project, plate reader, dry powder samples (AID 743021); type: functional, cell-based
[26] = inhibitors of control Renilla luciferase reporter, dose response, counter-screen for Shn3 3'UTR targeting project, Clone20-Shn3RL cells, dual-Glo, cherry-pick, set 2 (AID 720724); type: functional, cell-based; settings: Dual-Go Shn3RL
[27] = reduction of Shn3 3'UTR firefly luciferase signal, dose response, Schnurri-3 inhibitor project, cell-based, Clone20 osteoblasts, cherry-pick, set 2 (AID 720490); type: functional;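 also: actives lower the luminescence signal as inhibitors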
[28] = Shn3 3'UTR reporter inhibitors, dose response, cell-based, Clone20 osteoblasts, firefly luciferase, cherry-picked (AID 624132); type: functional;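 also: firefly luciferase luminescence from reporter carrying the Shn3 3'UTR in osteoblasts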
[29] = HepG2 cell cytotoxicity, dose response, cytotoxicity control for Shn3 inhibitor project, CellTiter-Glo, cherry-picked (AID 624134); type: functional, cell-based
[30] = miR-122 activators in hepatoma reporter cells, dose response, cell-based, Huh7 psiCHECK-miR122, Renilla luciferase, cherry-picked (AID 651956); type: functional;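 also: huh7 hepatoma cells stably carrying a psiCHECK-2 miR-122 sensor plasmid; renilla luciferase signal reporting endogenous miR-122 activity after 48 h compound exposure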
[31] = HEK293T cytotoxicity, dose response, cytotoxicity control for miR-122 modulator project, cell-based, activator set, cherry-pick (AID 720690); type: functional;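 also: HEK293T human cells scored for general mammalian cytotoxicity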
[32] = cytotoxicity in COV434 cells, dose response, cytotoxicity control for PAX8 inhibitor project, cell-based, plate reader, dry powder, SA7 (AID 743145); type: functional
[33] = cytotoxicity dependent on PAX8, dose response, cell-based, plate reader, dry powder (AID 743049); type: functional
[34] = cytotoxicity in COV362 ovarian cancer cells, dose response, cytotoxicity control for PAX8 inhibitor project, cell-based, plate reader, dry powder, SA12 (AID 743144); type: functional
[35] = IGROV1 ovarian cancer cell cytotoxicity, dose response, PAX8 inhibitor project, plate reader, dry powder samples (AID 743043); type: functional, cell-based; settings: IGROV-1
[36] = cytotoxicity in OV-90 ovarian cancer cells, dose response, PAX8 inhibitor project, cell-based, plate reader, dry powder, SA8 (AID 743149); type: functional
[37] = cytotoxicity in OVCAR4 cells, dose response, cytotoxicity control for PAX8 inhibitor project, cell-based, plate reader, dry powder, SA11 (AID 743150); type: functional; settings: OVCAR-4
[38] = PAX5 activity inhibitors, dose response, selectivity assay for PAX8 inhibitor project, cell-based, plate reader, dry powder samples (AID 743047); type: functional;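 also: HEK293 cells carrying a Pax5 driven CD19 promoter luciferase reporter; potency of inhibitors that lower reporter luminescence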
[39] = PAX2 cell-based inhibition, dose response, selectivity assay for PAX8 inhibitor project, plate reader, dry powder samples (AID 743048); type: functional;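 also: HEK293 cells carrying a WT1 promoter luciferase reporter driven by expressed Pax2; potency is for inhibition of Pax2 driven reporter signal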
[40] = Late stage assay provider results from the probe development effort to identify selective inhibitors of heat shock protein 90 (HSP90): Absorbance-based cell proliferation assay in SKBR3 cells.; type: functional; settings: SK-BR-3
[41] = Late stage assay provider results from the probe development effort to identify selective inhibitors of heat shock protein 90 (HSP90): Absorbance-based cell proliferation assay in MCF7 cells.; type: functional
Fatty acid synthase = Fatty acid synthase (Homo sapiens, UniProt P49327); assay: FAS thioesterase domain inhibitors, SAR follow-up, biochemical, endpoint fluorescence intensity, powder samples (AID 652164); type: functional
[42] = LGR2 antagonists, dose response, cell-based, HEK293, CRE-luciferase reporter, cherry pick, set 2 (AID 743343); type: functional;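 also: transfected cells were stimulated with diluted bursicon conditioned medium after compound addition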
[43] = control 3'UTR Renilla luciferase suppression, dose response, counter-screen for Shn3 inhibitor project, cell-based, Clone20-Shn3RL, cherry-picked (AID 624133); type: functional
[44] = HepG2 cell cytotoxicity, dose response, cytotoxicity control, plate reader, cherry-pick, antagonist series (AID 743416); type: functional, cell-based
Protein skinhead-1 = molecular target: T1, Protein skinhead-1 (Caenorhabditis elegans, UniProt P34707); type: functional
T1 sequence (P34707 whole entry): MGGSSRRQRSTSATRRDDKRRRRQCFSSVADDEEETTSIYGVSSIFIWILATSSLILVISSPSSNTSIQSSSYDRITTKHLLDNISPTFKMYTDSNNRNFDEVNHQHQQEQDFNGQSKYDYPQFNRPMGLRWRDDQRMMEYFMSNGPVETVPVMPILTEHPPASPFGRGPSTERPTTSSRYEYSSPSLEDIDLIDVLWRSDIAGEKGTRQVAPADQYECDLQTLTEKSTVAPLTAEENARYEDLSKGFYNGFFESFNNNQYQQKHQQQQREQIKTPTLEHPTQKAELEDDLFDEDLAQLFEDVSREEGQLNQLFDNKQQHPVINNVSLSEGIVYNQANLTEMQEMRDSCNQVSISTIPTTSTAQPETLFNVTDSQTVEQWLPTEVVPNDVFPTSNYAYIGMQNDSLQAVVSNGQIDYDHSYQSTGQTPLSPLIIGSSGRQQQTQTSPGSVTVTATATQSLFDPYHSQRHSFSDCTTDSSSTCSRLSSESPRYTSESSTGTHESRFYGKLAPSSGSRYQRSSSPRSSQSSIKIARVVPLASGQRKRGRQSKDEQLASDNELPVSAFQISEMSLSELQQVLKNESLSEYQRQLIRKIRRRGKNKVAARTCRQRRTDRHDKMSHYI

Beta Lactamase = Beta Lactamase (Pseudomonas aeruginosa, UniProt Q932Y6); assay: beta-lactamase reporter inhibitor potency, dose response, artefact control for NOD2-RIPK2 interaction inhibitor project, BLA reporter cells, FRET fluorescence (AID 651552); type: functional, cell-based
[45] = HEK293 cell cytotoxicity, dose response, cytotoxicity control, plate reader, cherry-picked samples (AID 743446); type: functional, cell-based
[46] = A549 cell cytotoxicity, dose response, cytotoxicity control, plate reader, cherry-pick, antagonist series (AID 743412); type: functional, cell-based
[47] = Fluorescence-based cell-based high throughput dose response assay for inhibitors of the interaction of nucleotide-binding oligomerization domain containing 2 (NOD2) and the receptor-interacting serine-threonine kinase 2 (RIPK2).; type: functional; settings: Homo sapiens
[48] = MC4R antagonists, dose response, counter-screen for LGR2 antagonist project, cell-based, plate reader, cherry pick (AID 743444); type: functional;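 also: transfected HEK 293 cells stimulated with alpha-MSH peptide; potency of inhibitors of the alpha-MSH evoked signal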

Paired box protein Pax-8, sequence (Q06710 whole entry): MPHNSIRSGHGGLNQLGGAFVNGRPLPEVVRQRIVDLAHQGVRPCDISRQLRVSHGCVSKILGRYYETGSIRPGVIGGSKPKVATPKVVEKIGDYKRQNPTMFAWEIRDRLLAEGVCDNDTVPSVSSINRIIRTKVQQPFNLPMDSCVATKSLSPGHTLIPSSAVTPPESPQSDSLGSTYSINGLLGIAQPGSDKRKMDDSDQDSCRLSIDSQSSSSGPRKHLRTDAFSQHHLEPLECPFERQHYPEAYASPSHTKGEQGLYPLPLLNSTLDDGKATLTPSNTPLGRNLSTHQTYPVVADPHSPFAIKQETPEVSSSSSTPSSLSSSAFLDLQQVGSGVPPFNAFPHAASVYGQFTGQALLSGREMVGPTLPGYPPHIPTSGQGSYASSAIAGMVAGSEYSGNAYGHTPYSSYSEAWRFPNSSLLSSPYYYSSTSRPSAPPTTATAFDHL
Beta Lactamase, sequence (Q932Y6 whole entry): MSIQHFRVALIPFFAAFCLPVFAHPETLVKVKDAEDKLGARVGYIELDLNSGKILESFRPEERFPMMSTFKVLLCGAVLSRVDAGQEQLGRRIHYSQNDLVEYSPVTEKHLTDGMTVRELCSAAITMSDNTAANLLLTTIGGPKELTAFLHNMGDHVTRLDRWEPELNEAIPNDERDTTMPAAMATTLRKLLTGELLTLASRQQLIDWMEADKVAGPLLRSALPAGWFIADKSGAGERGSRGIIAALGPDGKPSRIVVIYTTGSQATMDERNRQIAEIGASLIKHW
Nonstructural protein 1, sequence (Q194T2 whole entry): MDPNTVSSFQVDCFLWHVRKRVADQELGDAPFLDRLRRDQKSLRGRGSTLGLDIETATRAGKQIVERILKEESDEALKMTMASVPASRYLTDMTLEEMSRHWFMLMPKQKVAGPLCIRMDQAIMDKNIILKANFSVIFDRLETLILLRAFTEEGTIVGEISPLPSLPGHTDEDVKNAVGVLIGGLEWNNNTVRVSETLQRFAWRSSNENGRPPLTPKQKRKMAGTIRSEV
Fatty acid synthase, sequence (P49327 whole entry, the tested form may be a part): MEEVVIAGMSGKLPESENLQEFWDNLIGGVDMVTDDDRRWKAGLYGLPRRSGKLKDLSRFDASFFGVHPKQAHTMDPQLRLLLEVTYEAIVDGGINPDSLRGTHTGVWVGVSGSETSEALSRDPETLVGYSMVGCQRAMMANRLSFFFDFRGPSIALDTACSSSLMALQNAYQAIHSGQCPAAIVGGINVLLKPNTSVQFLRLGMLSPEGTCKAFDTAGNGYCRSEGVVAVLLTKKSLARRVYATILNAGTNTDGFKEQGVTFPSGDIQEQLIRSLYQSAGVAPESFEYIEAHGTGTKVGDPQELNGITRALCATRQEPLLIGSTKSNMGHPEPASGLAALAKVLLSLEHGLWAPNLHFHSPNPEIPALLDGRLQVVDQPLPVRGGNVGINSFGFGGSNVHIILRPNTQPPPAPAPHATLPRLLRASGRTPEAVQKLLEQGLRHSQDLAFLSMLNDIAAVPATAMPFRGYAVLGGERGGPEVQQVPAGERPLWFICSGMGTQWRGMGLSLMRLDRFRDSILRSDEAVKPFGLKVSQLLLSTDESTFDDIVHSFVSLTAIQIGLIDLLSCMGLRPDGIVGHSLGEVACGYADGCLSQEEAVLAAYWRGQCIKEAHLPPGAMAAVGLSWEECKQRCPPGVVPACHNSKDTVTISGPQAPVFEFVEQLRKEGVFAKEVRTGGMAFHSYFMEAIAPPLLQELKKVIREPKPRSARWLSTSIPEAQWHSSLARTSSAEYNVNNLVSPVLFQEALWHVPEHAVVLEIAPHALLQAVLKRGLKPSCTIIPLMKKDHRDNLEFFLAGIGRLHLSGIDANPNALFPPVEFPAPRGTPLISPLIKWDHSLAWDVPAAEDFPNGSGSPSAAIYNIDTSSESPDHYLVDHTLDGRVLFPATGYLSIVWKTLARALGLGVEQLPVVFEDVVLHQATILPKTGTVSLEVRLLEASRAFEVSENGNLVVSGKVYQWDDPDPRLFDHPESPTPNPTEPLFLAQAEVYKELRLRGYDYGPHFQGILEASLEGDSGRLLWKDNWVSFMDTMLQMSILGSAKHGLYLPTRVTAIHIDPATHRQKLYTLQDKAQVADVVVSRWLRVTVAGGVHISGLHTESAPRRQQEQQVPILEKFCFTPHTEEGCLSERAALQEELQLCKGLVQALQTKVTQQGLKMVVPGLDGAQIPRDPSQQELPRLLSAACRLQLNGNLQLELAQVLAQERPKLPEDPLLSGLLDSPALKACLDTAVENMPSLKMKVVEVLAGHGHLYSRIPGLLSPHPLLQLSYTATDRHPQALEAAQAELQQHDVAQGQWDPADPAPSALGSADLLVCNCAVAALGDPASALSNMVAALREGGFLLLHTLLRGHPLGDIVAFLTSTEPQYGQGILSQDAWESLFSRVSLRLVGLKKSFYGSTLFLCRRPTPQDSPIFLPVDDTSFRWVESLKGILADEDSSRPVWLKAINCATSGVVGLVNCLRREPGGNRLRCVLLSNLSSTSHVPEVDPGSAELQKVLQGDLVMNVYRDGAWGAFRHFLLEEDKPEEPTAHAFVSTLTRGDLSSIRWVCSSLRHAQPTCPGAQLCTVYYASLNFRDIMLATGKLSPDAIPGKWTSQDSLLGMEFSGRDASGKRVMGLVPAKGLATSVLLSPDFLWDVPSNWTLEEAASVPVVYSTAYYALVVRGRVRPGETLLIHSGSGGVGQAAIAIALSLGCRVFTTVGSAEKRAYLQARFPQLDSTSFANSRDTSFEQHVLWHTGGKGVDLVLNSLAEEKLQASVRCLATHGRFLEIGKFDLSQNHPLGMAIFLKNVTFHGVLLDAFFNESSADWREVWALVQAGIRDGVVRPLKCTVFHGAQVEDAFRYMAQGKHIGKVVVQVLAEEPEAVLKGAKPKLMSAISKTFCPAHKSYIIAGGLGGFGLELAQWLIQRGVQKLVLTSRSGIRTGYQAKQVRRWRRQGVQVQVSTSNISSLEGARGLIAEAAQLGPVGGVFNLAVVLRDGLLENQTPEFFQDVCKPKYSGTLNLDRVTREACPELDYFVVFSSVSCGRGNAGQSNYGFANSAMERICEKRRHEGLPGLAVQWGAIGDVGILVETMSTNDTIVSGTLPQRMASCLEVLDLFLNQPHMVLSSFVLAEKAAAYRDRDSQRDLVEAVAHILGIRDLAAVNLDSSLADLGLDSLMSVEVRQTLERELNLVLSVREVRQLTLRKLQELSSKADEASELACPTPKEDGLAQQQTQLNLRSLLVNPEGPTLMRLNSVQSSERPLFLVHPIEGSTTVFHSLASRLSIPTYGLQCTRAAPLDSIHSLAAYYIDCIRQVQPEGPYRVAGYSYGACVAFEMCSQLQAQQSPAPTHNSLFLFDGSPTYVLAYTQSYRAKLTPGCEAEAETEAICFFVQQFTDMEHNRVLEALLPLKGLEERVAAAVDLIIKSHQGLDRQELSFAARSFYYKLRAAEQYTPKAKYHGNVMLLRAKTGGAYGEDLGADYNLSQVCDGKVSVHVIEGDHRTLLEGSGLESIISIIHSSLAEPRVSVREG
Luciferin 4-monooxygenase, sequence (P08659 whole entry): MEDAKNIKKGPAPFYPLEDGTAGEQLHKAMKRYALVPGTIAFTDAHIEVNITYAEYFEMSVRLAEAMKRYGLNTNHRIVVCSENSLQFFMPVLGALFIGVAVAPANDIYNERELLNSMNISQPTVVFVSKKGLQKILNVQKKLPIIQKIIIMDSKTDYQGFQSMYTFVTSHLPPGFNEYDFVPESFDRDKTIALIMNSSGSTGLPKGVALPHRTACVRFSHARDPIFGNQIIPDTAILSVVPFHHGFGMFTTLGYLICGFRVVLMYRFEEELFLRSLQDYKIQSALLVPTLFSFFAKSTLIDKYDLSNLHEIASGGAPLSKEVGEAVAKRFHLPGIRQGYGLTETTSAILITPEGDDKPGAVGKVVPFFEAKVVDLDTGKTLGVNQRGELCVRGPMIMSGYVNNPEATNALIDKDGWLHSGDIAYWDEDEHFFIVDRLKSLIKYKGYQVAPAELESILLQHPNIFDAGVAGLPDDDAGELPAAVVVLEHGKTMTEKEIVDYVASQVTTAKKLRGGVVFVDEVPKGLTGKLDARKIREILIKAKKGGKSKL
Nucleotide-binding oligomerization domain-containing protein 2, sequence (Q9HC29 whole entry, the tested form may be a part): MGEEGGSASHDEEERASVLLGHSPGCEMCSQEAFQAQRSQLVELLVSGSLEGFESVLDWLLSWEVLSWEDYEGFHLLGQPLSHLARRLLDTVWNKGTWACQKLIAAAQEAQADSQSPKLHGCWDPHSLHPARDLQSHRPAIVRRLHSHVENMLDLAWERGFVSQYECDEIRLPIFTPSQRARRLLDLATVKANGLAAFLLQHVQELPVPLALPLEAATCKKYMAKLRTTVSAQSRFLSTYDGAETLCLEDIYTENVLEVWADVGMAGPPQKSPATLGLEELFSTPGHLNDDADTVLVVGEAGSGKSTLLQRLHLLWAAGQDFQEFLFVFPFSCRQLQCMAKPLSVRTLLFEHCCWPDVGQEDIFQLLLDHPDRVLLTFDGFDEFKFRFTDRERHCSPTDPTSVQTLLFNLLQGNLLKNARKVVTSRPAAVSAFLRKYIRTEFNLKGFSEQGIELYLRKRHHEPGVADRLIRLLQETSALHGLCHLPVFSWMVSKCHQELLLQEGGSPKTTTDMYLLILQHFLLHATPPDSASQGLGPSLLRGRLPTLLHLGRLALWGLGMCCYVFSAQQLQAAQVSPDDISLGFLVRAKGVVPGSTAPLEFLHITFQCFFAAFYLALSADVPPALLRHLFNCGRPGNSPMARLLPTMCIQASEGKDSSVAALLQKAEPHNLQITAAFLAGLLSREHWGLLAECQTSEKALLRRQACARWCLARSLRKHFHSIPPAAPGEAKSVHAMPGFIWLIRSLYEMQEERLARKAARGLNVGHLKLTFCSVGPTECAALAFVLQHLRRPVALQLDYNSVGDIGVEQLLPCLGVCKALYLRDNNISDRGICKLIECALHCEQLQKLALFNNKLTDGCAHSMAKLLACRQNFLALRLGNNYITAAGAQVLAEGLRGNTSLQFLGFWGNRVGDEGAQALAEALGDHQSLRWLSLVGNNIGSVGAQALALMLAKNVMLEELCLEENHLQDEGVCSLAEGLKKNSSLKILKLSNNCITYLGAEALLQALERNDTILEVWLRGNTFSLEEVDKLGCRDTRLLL

## c1ccc(-c2n[nH]c(-c3ccncc3)n2)nc1
Nonstructural protein 1
  IC50: 9.19 µM (active)
[1]
  AC50: > 52 µM (inactive)

## Nc1c(C(=O)NCc2ccccc2)c2nc3ccccc3nc2n1CCCN1CCOCC1
[2]
  AC50: 17.1 µM (active)
Cells [3]
  AC50: 25.2 µM (active)
Cells [4]
  AC50: 32.1 µM (active)
Cells [5]
  AC50: 15.6 µM (active)

## COC(=O)C1=C(C)N(C)C(S)=NC1c1ccccc1 (stereo not drawn)
[6]
  AC50: > 92 µM (inactive)
HEK293 [7]
  AC50: > 92 µM (inactive)
[8]
  AC50: 120 µM (active)

## COc1ccc(C2CC(c3ccc4ccccc4c3OC(C)=O)=NN2C(C)=O)cc1 (stereo not drawn)
INS1
  AC50: 3.3 µM (active)
[9]
  EC50: 3.82 µM (active)
[10]
  AC50: 26 µM (active)
[11]
  EC50: 0.512 µM (active)
H4
  EC50: 0.456 µM (active)

## Cc1ccccc1S(=O)(=O)Cc1ccc(C(=O)N2CCN(c3cccc(C)c3C)CC2)o1
[12]
  IC50: > 69.6 µM (inactive)
[13]
  EC50: 28.5 µM (active)
[14]
  IC50: 11.7 µM (inactive)
HEK293 [15]
  EC50: 5.29 µM (active)
HEK293 [16]
  IC50: 10.5 µM (active)
[17]
  EC50: > 112 µM (not active)
[18]
  EC50: 10.8 µM (active)
HEK293 [19]
  IC50: > 20 µM (inactive)
BJ [20]
  EC50: 11.1 µM (active)
BJ [21]
  EC50: 10 µM (inconclusive)
HEK293 [22]
  IC50: 3.96 µM (active)
[23]
  EC50: 4.95 µM (active)
BJ [24]
  EC50: 4.92 µM (active)

## COC(=O)C1C=CC(OC2OC(COC(C)=O)C(OC(C)=O)C(OC(C)=O)C2OC(C)=O)n2c(=O)n(-c3ccccc3)c(=O)n21 (stereo not drawn)
Paired box protein Pax-8
  AC50: 3.41 µM (active)
[25]
  AC50: 40 µM (active)

## CN(CC(=O)Nc1ccccc1Cl)C(=O)c1cccc(S(=O)(=O)N2CCN(c3ccccc3)CC2)c1
[26]
  AC50: 47.9 µM (active)
[27]
  AC50: 4.32 µM (active)
[28]
  AC50: 3.84 µM (active)
[29]
  AC50: > 70 µM (inactive)

## CO[C@@H]1CN(C)C(=O)c2ccc(NC(=O)c3ccc(Oc4ccccc4)cc3)cc2OC[C@H](C)NC[C@@H]1C
[30]
  AC50: 11.3 µM (active)
[31]
  AC50: 23.6 µM (active)

## C[C@@H]1CN([C@H](C)CO)C(=O)c2cc(NC(=O)CCCCCC(=O)Nc3ccccc3N)ccc2O[C@@H]1CN(C)Cc1ccc(C(F)(F)F)cc1
Paired box protein Pax-8
  AC50: 6.43 µM (active)
[32]
  AC50: > 70 µM (inactive)
[33]
  AC50: 10.1 µM (active)
[34]
  AC50: 32.9 µM (active)
[35]
  AC50: 39 µM (active)
[36]
  AC50: > 70 µM (inactive)
[37]
  AC50: 31.2 µM (active)
[38]
  AC50: 30 µM (active)
[39]
  AC50: > 32 µM (inactive)

## O=C(Nc1ccccc1I)c1coc(=O)c(Br)c1
[40]
  IC50: 45.3 µM (inactive)
[41]
  IC50: 29.4 µM (inactive)

## CCC(=O)Nc1nc(-c2ccc(S(=O)(=O)N3CCC(C)CC3)cc2)cs1
Fatty acid synthase
  IC50: > 80 µM (inactive)

## O=C1NC2C(=CC(O)C(O)C2O)c2cc3c(c(O)c21)OCO3 (stereo not drawn)
[42]
  AC50: 0.138 µM (active)
[43]
  AC50: 0.431 µM (active)
[28]
  AC50: < 0.26 µM (active)
[44]
  AC50: 0.218 µM (active)
Protein skinhead-1
  IC50: 24 µM (active)
Beta Lactamase
  IC50: 49.7 µM (inactive)
[45]
  AC50: 0.167 µM (active)
[46]
  AC50: 0.17 µM (active)
[47]
  IC50: 49.7 µM (inactive)
[48]
  AC50: 0.161 µM (active)
[29]
  AC50: 59 µM (active)
